Data from US6727407B1, “NUCLEIC ACIDS ENCODING THE ARABIDOPSIS PROTEIN KINASE β-SUBUNIT CKB3 AND A METHOD OF ALTERING CIRCADIAN RHYTHMS AND FLOWERING IN A PLANT BY TRANFORMING WITH A NUCLEIC ACID ENCODING A PROTEIN KINASE β-SUBUNIT” (Regents of the University of California, priority 1998, dated 2004).

Legend:
[1] = tested on: major DNA-protein complex containing CCA1; assay: EMSA: formation of the DNA-protein complex containing CCA1 in plant whole-cell extracts (A2 fragment of Lhcb1*3); assay type: biochemical, Arabidopsis; conditions: WCE preincubated 45 min at 30° C.
Protocol: WCE were incubated in the absence (lane 1) or presence (lane 2) of λ protein phosphatase (200 units added to 200 μl) for 30 min at 30° C. […] WCE from wild type (WT) and a CCA1-ox line (CCA1-ox) (7) grown in 12:12 photoperiods were used in the EMSA. […] WCE were incubated with the indicated inhibitor for 45 min at 30° C. Lane 1, no inhibitors; lane 2, 5 mM 2,3-diphosphoglycerate (D.G.); lane 3, 100 μM quercetin. Arrows indicate the position of the major DNA-protein complex containing CCA1.
CCA1 was incubated with 0.1 ng of end-labeled A2 fragment of the Arabidopsis Lhcb 1*3 gene (56) in the presence of 0.5 μg of poly(dI-dC) at 25° C. for 15 min. WCE were incubated in preincubation buffer (50 mM Tris-HCl, pH 7.5, 2 mM MnCl2, 5 mM DTT, 0.1 mM EDTA, 0.01% Brij 35) at 30° C. for 45 min, then incubated with the A2 probe in the presence of 1 μg of poly(dI-dC). The EMSA buffer and electrophoresis conditions have been described (56). DNA-protein complexes were detected by autoradiography.
The A2 fragment used as a probe includes known binding sites for G-box and CAAT binding proteins (56). […] Further evidence that the marked complex contains CCA1 includes the observations (data not shown) that this complex is absent in extracts prepared from CCA1-null mutant plants and that addition of anti-CCA1 antibodies inhibits its formation. […]

[2] = molecular target: CK1 and CK2; conditions: cited from earlier work
[3] = tested on: CK2-like activity in Arabidopsis whole-cell extracts; assay: In vitro kinase assay: phosphorylation of GST-CCA1 by Arabidopsis whole-cell extracts; assay type: biochemical; conditions: 10 mM inhibitor, 160 μg WCE, [γ-32P]ATP, 30° C. 30 min
Protocol: (§1) GST (lanes 1 and 4) or GST-CCA1 (lanes 2, 3, 5-7) were incubated with 160 μg of WCE in the absence (lanes 1, 2, 4, and 5) or presence (lane 3) of 10 mM 2,3-diphosphoglycerate (D. G.), with recombinant CK2 (rCK2) in the absence (lane 6) or presence of 10 mM 2,3-diphosphoglycerate (lane 7) together with [γ-^32P]ATP (lanes 1-3, 6, and 7) or [γ-^32P]GTP (lanes 4 and 5). The arrow indicates the position of the full-length GST-CCA1 protein.
(§2) GST-CCA1 bound to glutathione-agarose beads was resuspended in 50 μl of CK2 buffer (50 mM Tris-HCl, pH 7.5, 10 mM MgCl2, 100 mM NaCl, 1 mM DTT. 0.1 mM ATP or GTP) in the presence of 5-10 μCi of [γ-^32P]ATP or GTP. The reaction was started by adding CK2 or whole-cell extracts (WCE) and incubating samples at 30° C. for 30 min. WCE were prepared as described previously (3) except that the phosphatase inhibitor cocktail (5 mM NH4VO3, 0.2 mM ammonium molybdate, 1 mM EGTA, 50 mM NaF) was added to extraction buffer. The beads were washed with phosphate-buffered saline (PBS) containing 1% Triton X-100 and resuspended in 1X SDS-PAGE sample buffer. The phosphorylated samples were separated by 10% SDS-PAGE. ^32P-labeled bands were detected by autoradiography and quantitated with a PhosphorImager.
(§3) We next examined whether plants contain a CK2-like protein kinase activity that can phosphorylate CCA1 in vitro. […]

[4] = tested on: recombinant CK2; assay: In vitro kinase assay: phosphorylation of GST-CCA1 by recombinant CK2; assay type: biochemical, Arabidopsis; conditions: 10 mM inhibitor, recombinant CK2, [γ-32P]ATP
Protocol: as §1, §2, §3

Row | Molecule | formation of the DNA-protein complex containing CCA1 ([1]; 100 μM inhibitor) | kinase inhibition specificity [2] | reduction of incorporation of ATP into GST-CCA1 [3] | reduction of phosphorylation of CCA1 [4] | formation of the DNA-protein complex containing CCA1 ([1]; 5 mM inhibitor)
1 | O=c1c(O)c(-c2ccc(O)c(O)c2)oc2cc(O)cc(O)c12 [quercetin] | abolished | specific to CK2 | – | – | –
2 | 2,3-diphosphoglycerate | – | inhibits both CK1 and CK2 | 63% | 77% | abolished
